Legend:
[1] = system: C57BL/6NTac mice; assay: Imiquimod-induced skin inflammation, ear-only model (ear thickness); type: in vivo, mouse; conditions: for imiquimod-induced ear thickening: oral gavage twice daily, Studies 1-4
Text: (§1) Imiquimod is an immune modifying agent that potently activates specific Toll-like receptors (e.g., TLR7) and induces irritation/inflammation of the skin that requires the IL23R/RORγ/IL17 axis of the immune system (van der Fits et al, (2009) J Immunol; 182:5836-5845; Gray et al, (2013) Nature Immunol; June; 14(6):584-92). The imiquimod-induced skin inflammation model can be used to assess the ability of an RORγ inhibitor to reduce Th17-driven inflammation in mice. For the ear-only skin inflammation model in which ear thickness was measured with digital engineer's calipers (Mitutoyo PK-0505), female wild type C57BL/6NTac mice obtained from Taconic (Hudson, N.Y.) at 8 to 12 wk of age received a daily topical dose of 10 mg of commercially available imiquimod cream (5%) (Aldara; Medicis) distributed over both ears at approximately 11:00 h for up to 4 consecutive days. Alternatively, 72 mg of Aldara was distributed over both ears and the shaved/depiliated back skin of mice at approximately 11:00 h for 3 consecutive days to examine RORγ-dependent gene expression (RNA isolated from both ears using Qiazol followed by clean-up on with the RNeasy protocol (Qiagen, Germantown, Md.); Taqman probe/primer sets for B2M (Mm00437762_ml), IL-17A (Mm00439619_ml), IL-17F (Mm00521423_ml), or IL-22 (Mm00444241_ml) (Thermo Fisher Scientific, Inc., Waltham, Mass.) and ex vivo stimulated (anti-CD3 (2 μg/ml, clone eBio500A2, eBioscience, San Diego, Calif.), anti-CD28 (1 μg/ml, clone 37.51, BD Bioscience, San Jose, Calif.), recombinant mouse IL-13 (20 ng/ml, R&D Systems, Minneapolis, Minn.), and recombinant mouse IL-23 (20 ng/ml, R&D Systems, Minneapolis, Minn.) IL-17A protein expression from whole blood (Meso Scale Discovery, Rockville, Md.). For treatment of the skin inflammation in these models, each compound or vehicle (methylcellulose in water, 1% w/v, Sigma Aldrich, St. Louis, Mo.) was administered via oral gavage at approximately 08:00 h and 16:00 h daily at various doses selected from 1, 3, 10, and 30 mg/kg.

[2] = system: C57BL/6NTac mice; assay: Imiquimod-induced skin inflammation, ears and back skin: RORγ-dependent gene expression and ex vivo stimulated whole blood IL-17A; type: in vivo, mouse
Text: as §1

For Cc1c(CN2CCN(C(=O)C3CCCC3)[C@@H](C)C2)cc(Cl)cc1NC(=O)CCS(C)(=O)=O [Example 43, (S)—N-(5-chloro-3-((4-(cyclopentanecarbonyl)-3-methylpiperazin-1-yl)methyl)-2-methylphenyl)-3-(methylsulfonyl)propanamide], the imiquimod-induced ear thickening ([1]; 10 mg/kg) was “statistically significant reduction”, the imiquimod-induced ear thickening ([1]; 30 mg/kg) was “statistically significant reduction” and the “imiquimod-induced ear thickening, versus vehicle (FIG. 1)” value ([1]; FIG. 1, dose not stated) was “statistically significant reduction”. The “IL17A protein expressed following ex vivo stimulation of whole blood” value ([2]; study A, 10 mg/kg oral) was “significantly reduced”, the “ear mRNA levels of IL17A, IL17F, or IL22” value ([2]; study A, 10 mg/kg oral) was “no significant reduction” and the “IL17F mRNA levels in the ear skin” value ([2]; study B, 10 mg/kg oral) was “significantly reduced”. For the same compound, the “IL22 mRNA levels in the ear skin” value ([2]; study B, 10 mg/kg oral) was “significantly reduced” and the “IL17A mRNA levels in the ear skin” value ([2]; study C) was “reached statistical significance”.

Reference: patent US9902735B2, “Heteroaryl substituted compounds as RORγ inhibitors” (GlaxoSmithKline Intellectual Property Developement Limited, priority 2014, dated 2018)
